Experimental data from US9796671B2, “Aurora kinase inhibitors” (REGENTS OF THE UNIVERSITY OF MINNESOTA, priority 2012, dated 2017).

Key:
[1] = target: Akt1 (Homo sapiens, UniProt P31749); assay: Akt1 in vitro kinase assay; format: biochemical
Procedure: (§1) According to the kinase profiler assay results, Akt2 also might be a potential target of Compound 1. An Akt1 and Akt2 in vitro kinase assays was performed.

[2] = test system: HCT116 p53+/+ cells; assay: Soft agar assay, p53 wildtype colon cancer cells; format: cell-based
Procedure: (§2) Tumor cells are suspended in basal medium Eagle (BME) medium and added to 0.6% agar, with different concentrations of Compound 1 in a base layer and a top layer of 0.3% agar. The cultures are maintained at 37° C. in a 5% CO2 incubator for 1 to 2 weeks and then colonies are counted under a microscope using the Image-Pro Plus software (v.4) program (Media Cybernetics, Silver Spring, Md.).
(§3) The effect of compound 1 in a pair of colon cancer cell lines, p53 wildtype (HCT116 p53^+/+) and p53-deficient (HCT116 p53^−/−) cells was also examined to determine whether the sensitivity of cells to compound 1 directly correlates with the status of p53 in cells.

[3] = test system: H520 cells; assay: Apoptosis (Annexin V/PI staining); format: cell-based, human; conditions: H520, 5 μM, 72 hours
Procedure: (§4) Cells are plated in 60-mm plates and treated or not treated with Compound 1 for the indicated time. At each time point, cells are fixed in 70% ethanol and stored at −20° C. for 24 h. After staining, the cell cycle distribution or apoptosis is determined using a BD FACSCalibur Flow Cytometer (BD Biosciences, San Jose, Calif.). Aurora B inhibition leads to failure in cytokinesis and abnormal exit from mitosis, which could result in polyploidy cells, cell cycle arrest, and ultimately apoptosis. The ability to induce polyploidy cells was further examined in A549 cells treated or not treated with Compound 1. […] In addition, Compound 1 treatment for 48 hours caused an increase in the number of A549 and H520 cells occupying the G2/M phase. Moreover, exposure of these cells to Compound 1 for 72 hours induced apoptosis as measured by Annexin V/PI staining. For example, exposure to 5 μM Compound 1 induced 48% or 82% apoptosis in A549 cells and H520 cells, compared to 8% or 38% in untreated control cells, respectively.

[4] = test system: A549 cells; assay: Apoptosis (Annexin V/PI staining); format: cell-based, human; conditions: A549, 5 μM, 72 hours
Procedure: as §4

[5] = target: Akt2 (Homo sapiens, UniProt P31751); assay: Akt2 in vitro kinase assay; format: biochemical
Akt2, sequence (P31751 whole entry, species assumed): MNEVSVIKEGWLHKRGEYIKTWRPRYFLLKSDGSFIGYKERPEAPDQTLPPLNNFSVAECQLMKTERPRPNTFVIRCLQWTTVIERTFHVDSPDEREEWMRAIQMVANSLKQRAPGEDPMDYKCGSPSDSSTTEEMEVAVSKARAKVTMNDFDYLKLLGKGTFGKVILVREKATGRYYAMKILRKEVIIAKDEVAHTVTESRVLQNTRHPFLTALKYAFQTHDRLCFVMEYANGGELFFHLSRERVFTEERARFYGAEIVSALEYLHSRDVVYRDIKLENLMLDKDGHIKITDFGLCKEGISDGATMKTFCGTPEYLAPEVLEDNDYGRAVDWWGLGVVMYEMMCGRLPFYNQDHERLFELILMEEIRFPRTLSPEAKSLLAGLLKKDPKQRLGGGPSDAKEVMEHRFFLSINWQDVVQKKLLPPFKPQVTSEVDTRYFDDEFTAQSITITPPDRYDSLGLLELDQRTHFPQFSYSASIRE
Procedure: as §1

[6] = test system: HCT116 p53−/− cells; assay: Soft agar assay, p53-deficient colon cancer cells; format: cell-based; conditions: Homo sapiens, read-out: inhibition of growth in soft agar
Procedure: as §2, §3

[7] = test system: MRC-5 normal lung cells; assay: Cytotoxicity (MTS assay); format: cell-based
Procedure: (§5) To estimate the cytotoxicity of Compound 1, cells are seeded (8×10^3 cells per well) in 96-well plates and cultured overnight. Cells are fed with fresh medium and treated with different doses of Compound 1. After culturing for various times, the cytotoxicity of Compound 1 is measured using an MTS assay kit (Promega, Madison, Wis.) according to the manufacturer's instructions.
(§6) The toxicity of Compound 1 on both MRC-5 normal lung cells and A549 lung cancer cells was then examined.

[8] = test system: A549 lung cancer cells; assay: Cytotoxicity (MTS assay); format: cell-based, human
Procedure: as §5, §6

[9] = test system: human A549 lung cancer cell xenografts; assay: A549 xenograft in athymic nude mice, intraperitoneal; format: in vivo
Procedure: Tumor tissues from mice are embedded in a paraffin block and subjected to hematoxylin and eosin (H&E) staining and immunohistochemistry. Tumor tissues are deparaffinized and hydrated, then permeabilized with 0.5% Triton X-100/1 PBS for 10 min, hybridized with Ki-67 (1:500) as the primary antibody and an HRP-conjugated goat anti-rabbit or mouse IgG antibody is used as the secondary antibody. After developing with 3,30-diaminobenzidine, the sections are counterstained with H&E. All sections are observed by microscope and the Image-Pro Plus software (v.4) program (Media Cybernetics).
The ability of Compound 1 to inhibit the growth of human A549 lung cancer cell xenografts in athymic nude mice was then evaluated. Tumor volumes were measured twice a week and mouse weights were determined once a week. Compound 1 caused a marked reduction in tumor size in the human A549 xenograft model. In mice treated with Compound 1 at 20 mg/kg, twice a week intraperitoneally, mean tumor volumes were reduced to 164 mm^3 in comparison with control group (408 mm^3) (P<0.01). […] Moreover, the effects of Compound 1 on a tumor proliferation marker were evaluated by immunohistochemistry and H&E staining of A549 tumor tissues after the 31 days of treatment.

[10] = test system: A549 cells; assay: Polyploidy induction (immunofluorescence microscopy); format: cell-based, human; conditions: A549, 1 μM, 48 h
Procedure: A549 cells are seeded in four-chamber slides and cultured overnight. The cells are then treated with DMSO or Compound 1 (1 μM) for 48 h at 37° C. After treatment, the cells are washed with PBS and fixed with methanol for 12 hours, followed by blocking with 3% PBS for 1 hour. The cells are then incubated with α-tubulin antibodies (1:100) overnight and DNA is stained with 4′-6-diamidino-2-phenylindole (DAPI, Pierce) for 30 minutes at room temperature. The cells are evaluated by fluorescent microscopy.
as §4, with “Aurora” for “Cells are plated in 60-mm plates and treated or not treated with Compound 1 for the indicated time. At each time point, cells are fixed in 70% ethanol and stored at −20° C. for 24 h. After staining, the cell cycle distribution or apoptosis is determined using a BD FACSCalibur Flow Cytometer (BD Biosciences, San Jose, Calif.). Aurora”

[11] = concentrations greater than 10 μM

Akt1, sequence (P31749 whole entry, species assumed): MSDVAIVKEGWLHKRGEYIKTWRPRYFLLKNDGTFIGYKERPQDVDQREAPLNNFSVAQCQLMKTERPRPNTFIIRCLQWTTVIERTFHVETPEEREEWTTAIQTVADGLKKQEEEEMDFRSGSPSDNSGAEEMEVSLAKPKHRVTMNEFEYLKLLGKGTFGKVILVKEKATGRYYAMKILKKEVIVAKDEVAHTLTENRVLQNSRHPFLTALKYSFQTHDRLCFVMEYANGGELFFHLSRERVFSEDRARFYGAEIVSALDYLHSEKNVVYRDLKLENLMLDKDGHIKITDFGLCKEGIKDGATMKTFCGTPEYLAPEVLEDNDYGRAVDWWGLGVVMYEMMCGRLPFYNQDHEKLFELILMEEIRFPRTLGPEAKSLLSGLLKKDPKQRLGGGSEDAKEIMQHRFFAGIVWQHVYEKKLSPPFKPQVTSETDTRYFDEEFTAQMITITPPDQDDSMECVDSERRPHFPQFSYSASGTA

SMILES: O=C(/C=C/c1ccc2c(c1)OCO2)/C=C1/C(=O)Nc2ccccc21 [Compound 1]
- inhibition at 5 µM ([1]; 5 μM): 32%
- concentration inhibiting Akt1 kinase activity in vitro ([1]; discussion statement): ≥ 1 µM
- inhibition of growth in soft agar ([2]; 0.05 μM): no inhibition
- inhibition at 0.1 µM ([2]; Homo sapiens, HCT-116, 0.1 μM, read-out: inhibition of growth in soft agar): 55%
- apoptosis (Annexin V/PI staining) [3]: 82%
- apoptosis (Annexin V/PI staining) [4]: 48%
- inhibition at 5 µM ([5]; 5 μM): 52%
- concentration inhibiting Akt2 kinase activity in vitro ([5]; discussion statement): ≥ 1 µM
- inhibition at 0.05 µM ([6]; HCT-116, 0.05 μM): 40%
- inhibition at 0.1 µM ([6]; HCT-116, 0.1 μM): > 95%
- cytotoxic effects on MRC-5 normal lung cells ([7]; 1 μM or less): no obvious cytotoxic effects
- toxicity to MRC-5 normal cells ([7]; 5 μM, 48 hours): not
- toxicity on MRC-5 normal lung cells [7, 11]: substantial toxicity
- cytotoxic effects on A549 lung cancer cells ([8]; 1 μM or less): no obvious cytotoxic effects
- toxicity toward A549 cancer cells ([8]; 5 μM, 48 hours): weak toxicity
- toxicity on A549 lung cancer cells [8, 11]: substantial toxicity
- loss of body weight ([9]; 20 mg/kg, twice a week intraperitoneally): no obvious loss
- mean tumor volume ([9]; 20 mg/kg, twice a week intraperitoneally, control group 408 mm^3, P<0.01): 164 mm^3
- expression of Ki-67 in A549 tumor tissues (immunohistochemistry) ([9]; after the 31 days of treatment): markedly decreased
- induction of polyploidy cells [10]: caused the induction of polyploidy cells
